Where a SMILES comes first, the peptide text is derived from it. [ ]: non-standard residue; d: D form. NMeF = CN[C@@H](Cc1ccccc1)C(=O)O; dNMeF = CN[C@H](Cc1ccccc1)C(=O)O; NMeL = CN[C@@H](CC(C)C)C(=O)O; dNMeL = CN[C@H](CC(C)C)C(=O)O; dNMeA = CN[C@H](C)C(=O)O

In general, Papp refers to a coefficient for how fast a substance crosses the barrier. A high value points to fast passage.

The conditions of series [1]: PAMPA. (In PAMPA a lipid-coated filter parts donor from acceptor wells.)
A short description of series [2]: in vitro. The following applies: PAMPA, PAMPA_Papp_Avg.

As for `CC(C)C[C@H]1NC(=O)[C@@H]2CCCN2C(=O)[C@H]2CCCN2C(=O)[C@H](C(C)C)NC(=O)[C@@H](CC(C)C)NC(=O)[C@@H]2CCCN2C(=O)[C@H]2CCCN2C(=O)[C@H](C(C)C)NC1=O` (single isomer, unassigned) [D8.12 p1, DLEU VAL DPRO PRO DLEU VAL DPRO PRO], in series [1], the PAMPA_R1 came out at 1.52E-07 and the PAMPA_R3 is reported as 1.92E-07. The same compound had a Papp in series [2] of 0.169 ×10⁻⁶ cm/s.
In series [1], `CC(C)[C@@H]1C(=O)N[C@@H](Cc2ccccc2)C(=O)N2CCC[C@H]2C(=O)N(C)[C@H](Cc2ccccc2)C(=O)N[C@H](C)C(=O)N2CCC[C@H]2C(=O)N1C` (single isomer, unassigned) [Design D6.8.p1, *DPHE DALA PRO *DVAL PHE PRO] gave a PAMPA_R1 of 4.07e-06 cm/s and a PAMPA_R3 of 3.58e-06 cm/s. In addition, the Papp in series [2] was found to be 3.47 ×10⁻⁶ cm/s.
In the same order, the values of `CC(C)C[C@H]1C(=O)N2CCC[C@@H]2C(=O)N[C@@H](Cc2ccccc2)C(=O)N2CCC[C@H]2C(=O)N[C@H](C(C)C)C(=O)N[C@H](Cc2ccccc2)C(=O)N1C` (single isomer, unassigned) [Design D6.9.p1, DVAL DPHE *LEU DPRO PHE PRO] are 4.01e-06 cm/s, 6.97e-06 cm/s and 5.29 ×10⁻⁶ cm/s.
On the same counts, the results for `CC(C)C[C@H]1NC(=O)[C@H]2CCCN2C(=O)[C@@H]2CCCN2C(=O)[C@@H](Cc2ccccc2)NC(=O)[C@@H](C(C)C)NC(=O)[C@H](CC(C)C)N(C)C(=O)[C@@H](Cc2ccccc2)NC1=O` (single isomer, unassigned) [Design D7.7.p1, PRO DPRO DLEU DPHE *LEU DVAL DPHE] are 8.16e-06 cm/s, 9.31e-06 cm/s and 8.43 ×10⁻⁶ cm/s.
In the same order, the values of `CC[C@H](C)[C@@H]1NC(=O)[C@H](Cc2ccccc2)NC(=O)[C@H]2CCCN2C(=O)[C@H]([C@@H](C)CC)NC(=O)[C@H](C(C)C)NC(=O)[C@@H](C)NC(=O)[C@H]2CCCN2C1=O` (single isomer, unassigned) [Design D7.8.p1, VAL ILE DPRO PHE ILE DPRO DALA] are 4.5e-06 cm/s, 6.04e-06 cm/s and 4.87 ×10⁻⁶ cm/s.
On to `CC[C@@H](C)[C@H]1NC(=O)[C@H](CC(C)C)N(C)C(=O)[C@H]2CCCN2C(=O)[C@H](CC(C)C)NC(=O)[C@H](Cc2ccccc2)N(C)C(=O)CN(C)C(=O)[C@@H](C(C)C)NC(=O)[C@H](C)NC(=O)[C@H]2CCCN2C(=O)[C@@H]2CCCN2C1=O` (single isomer, unassigned) [Design D10.58.p1, *GLY *PHE LEU DPRO *LEU DILE PRO DPRO ALA DVAL], for which, in series [1], the PAMPA_R1 was found to be 3.35E-07 and the PAMPA_R3 is 4.44E-07. The compound also showed a Papp in series [2] of 0.376 ×10⁻⁶ cm/s.
In series [1], `CC[C@@H](C)[C@H]1NC(=O)[C@H](CC(C)C)N(C)C(=O)[C@H]2CCCN2C(=O)[C@H](CC(C)C)NC(=O)[C@@H](Cc2ccccc2)N(C)C(=O)[C@H](CC(C)C)N(C)C(=O)[C@@H](C(C)C)NC(=O)[C@H](C)NC(=O)[C@H]2CCCN2C(=O)[C@@H]2CCCN2C1=O` (single isomer, unassigned) [Design D10.60.p1, *LEU *DPHE LEU DPRO *LEU DILE PRO DPRO ALA DVAL] returned a PAMPA_R1 of 6.58E-07 and a PAMPA_R3 of 1.13E-06. In series [2], this compound came in with a Papp of 0.65 ×10⁻⁶ cm/s.
In series [1], `CC(C)C[C@@H]1C(=O)N(C)[C@@H](CC(C)C)C(=O)N2CCC[C@@H]2C(=O)N[C@H](CC(C)C)C(=O)N[C@H](C)C(=O)N2CCC[C@@H]2C(=O)N2CCC[C@H]2C(=O)N[C@@H](C)C(=O)N[C@H](Cc2ccccc2)C(=O)N[C@H](CC(C)C)C(=O)N[C@@H](C(C)C)C(=O)N1C` (single isomer, unassigned) [Design D11.9.p1, VAL *DLEU *LEU DPRO DLEU DALA DPRO PRO ALA DPHE DLEU] gave a PAMPA_R1 of 1.04E-06 and a PAMPA_R3 of 2.42E-07. In series [2], this compound came in with a Papp of 0.641 ×10⁻⁶ cm/s.
In series [1], `CC[C@@H](C)[C@H]1NC(=O)[C@@H](Cc2ccccc2)NC(=O)[C@@H]2CCCN2C(=O)[C@@H]([C@H](C)CC)NC(=O)[C@@H](Cc2ccccc2)NC(=O)[C@@H]2CCCN2C1=O` [Design D6.1, DILE PRO DPHE DILE PRO DPHE] (cyclo(P[dF][dI]P[dF][dI])) came in with a PAMPA_R1 of 3.78e-06 cm/s and a PAMPA_R3 of 3.92e-06 cm/s. This compound also gave a Papp in series [2] of 3.34 ×10⁻⁶ cm/s.
On the same counts, the results for `CC[C@@H](C)[C@H]1NC(=O)[C@@H](Cc2ccccc2)N(C)C(=O)[C@@H]2CCCN2C(=O)[C@@H]([C@H](C)CC)NC(=O)[C@@H](Cc2ccccc2)N(C)C(=O)[C@@H]2CCCN2C1=O` [Design D6.2, DILE PRO *DPHE DILE PRO *DPHE] (cyclo(P[dNMeF][dI]P[dNMeF][dI])) are 1.72e-05 cm/s, 1.15e-05 cm/s and 12.1 ×10⁻⁶ cm/s.
In the same order, the values of `CC(C)C[C@H]1NC(=O)[C@@H]2CCCN2C(=O)[C@@H]2CCCN2C(=O)[C@@H](C)NC(=O)[C@@H](Cc2ccccc2)NC(=O)[C@H]2CCCN2C1=O` [Design D6.3, DPRO DPHE DALA PRO PRO DLEU] (cyclo(PP[dL][dP][dF][dA])) are 5.23e-06 cm/s, 7.03e-07 cm/s and 1.99 ×10⁻⁶ cm/s.
Consider `CC[C@@H](C)[C@H]1NC(=O)[C@@H](CC(C)C)N(C)C(=O)[C@@H](CC(C)C)N(C)C(=O)[C@H](CC(C)C)NC(=O)[C@@H](CC(C)C)N(C)C(=O)[C@H](Cc2ccccc2)NC(=O)[C@H](CC(C)C)NC(=O)[C@@H]2CCCN2C(=O)[C@H]2CCCN2C(=O)[C@@H]2CCCN2C(=O)[C@H](CC(C)C)NC1=O` [Design D11.22, PHE *DLEU LEU *DLEU *DLEU DILE LEU PRO DPRO PRO LEU] (cyclo(LF[dNMeL]L[dNMeL][dNMeL][dI]LP[dP]P)), for which, in series [1], the PAMPA_Papp_Avg result was “BQL”, the PAMPA_R1 result was “BQL” and the PAMPA_R3 entry was “BQL”.
As for `CC[C@H](C)[C@@H]1NC(=O)[C@H]2CCCN2C(=O)[C@@H](CC(C)C)N(C)C(=O)[C@H](CC(C)C)NC(=O)[C@@H](C)N(C)C(=O)[C@H]2CCCN2C(=O)[C@@H](CC(C)C)NC(=O)[C@@H](C(C)C)NC(=O)[C@H](CC(C)C)NC(=O)[C@@H](C)NC(=O)[C@@H](Cc2ccccc2)NC(=O)[C@H]2CCCN2C1=O` [Design D12.2, ILE DPRO DPHE DALA LEU DVAL DLEU DPRO *DALA LEU *DLEU DPRO] (cyclo(I[dP][dF][dA]L[dV][dL][dP][dNMeA]L[dNMeL][dP])), in series [1], the PAMPA_Papp_Avg entry is given as “BQL”, the PAMPA_R1 entry is listed as “BQL” and the PAMPA_R3 result is “BQL”.
Regarding `CC[C@@H](C)[C@H]1NC(=O)[C@H](C(C)C)NC(=O)[C@H]2CCCN2C(=O)[C@@H]2CCCN2C(=O)[C@H](Cc2ccccc2)NC(=O)[C@@H](CC(C)C)NC(=O)[C@H](Cc2ccccc2)NC(=O)[C@@H]2CCCN2C(=O)[C@@H](C)N(C)C(=O)[C@@H]2CCCN2C(=O)[C@H](CC(C)C)NC(=O)[C@H](CC(C)C)N(C)C1=O` [Design D12.4, PRO *DALA PRO PHE DLEU PHE PRO DPRO VAL DILE *LEU LEU] (cyclo(FP[dP]V[dI][NMeL]LP[dNMeA]PF[dL])), in series [1], the PAMPA_Papp_Avg result was “BQL”, the PAMPA_R1 result is listed as “BQL” and the PAMPA_R3 entry is given as “BQL”.
Take `CC[C@@H](C)[C@H]1NC(=O)[C@@H](CC(C)C)N(C)C(=O)[C@H](CC(C)C)NC(=O)[C@@H](C(C)C)NC(=O)[C@@H]2CCCN2C(=O)[C@H]2CCCN2C(=O)[C@@H]([C@H](C)CC)NC(=O)[C@@H](C)N(C)C(=O)[C@@H]([C@H](C)CC)NC(=O)[C@H](Cc2ccccc2)N(C)C(=O)[C@H]2CCCN2C(=O)[C@@H](Cc2ccccc2)NC1=O` [Design D12.7, DPHE DPRO *PHE DILE *DALA DILE DPRO PRO DVAL LEU *DLEU DILE] (cyclo([dV]L[dNMeL][dI][dF][dP][NMeF][dI][dNMeA][dI][dP]P)): in series [1], the PAMPA_Papp_Avg entry was “BQL”, the PAMPA_R1 entry was “BQL” and the PAMPA_R3 entry is on record as “BQL”.
Regarding `CC[C@H](C)[C@@H]1NC(=O)[C@H](C)NC(=O)[C@H](CC(C)C)NC(=O)[C@@H]2CCCN2C(=O)[C@@H](C(C)C)NC(=O)[C@H](CC(C)C)NC(=O)[C@@H]2CCCN2C(=O)[C@H]2CCCN2C(=O)[C@H](C)NC(=O)[C@H](Cc2ccccc2)NC(=O)[C@@H](CC(C)C)NC(=O)[C@H]2CCCN2C1=O` [Design D12.8, PHE ALA DPRO PRO LEU DVAL PRO LEU ALA ILE DPRO DLEU] (cyclo(L[dV]PLAI[dP][dL]FA[dP]P)), in series [1], the PAMPA_Papp_Avg result is listed as “BQL”, the PAMPA_R1 entry is recorded as “BQL” and the PAMPA_R3 entry was “BQL”.
In the case of `CC[C@@H](C)[C@H]1NC(=O)[C@@H]2CCCN2C(=O)[C@H](CC(C)C)NC(=O)[C@@H](CC(C)C)NC(=O)[C@@H](Cc2ccccc2)NC(=O)[C@@H](Cc2ccccc2)NC(=O)[C@@H](C)NC(=O)[C@H]2CCCN2C(=O)[C@@H]2CCCN2C(=O)[C@@H](C(C)C)NC(=O)[C@@H]2CCCN2C(=O)[C@H]2CCCN2C1=O` [Design D12.9, DILE DPRO PRO DVAL PRO DPRO DALA DPHE DPHE DLEU LEU PRO] (cyclo([dV]P[dP][dA][dF][dF][dL]LP[dI][dP]P)), in series [1], the PAMPA_Papp_Avg result is recorded as “BQL”, the PAMPA_R1 entry was “BQL” and the PAMPA_R3 entry was “BQL”.
In the case of “*DPHE *LEU PRO DLEU VAL *DLEU PRO DILE *ALA *ALA [Design D10.65]”, in series [1], the PAMPA_Papp_Avg entry is on record as “BQL”, the PAMPA_R1 entry was “BQL” and the PAMPA_R3 result was “BQL”.
With “DPRO PRO *DLEU DALA PRO *DLEU ALA *GLY *DVAL DPHE [Design D10.7]”, in series [1], the PAMPA_Papp_Avg result was “BQL”, the PAMPA_R1 result is given as “BQL” and the PAMPA_R3 entry is reported as “BQL”.
In the case of “PRO DPRO DALA DPHE DLEU ILE DPHE *DALA LEU PRO NLE [Design D11.14.p1]”, in series [1], the PAMPA_Papp_Avg result was “BQL”, the PAMPA_R1 result was “BQL” and the PAMPA_R3 entry is on record as “BQL”.
For “PRO DPRO DALA DPHE DLEU ILE DPHE *DALA LEU PRO NLE [Design D11.14.p2]”, in series [1], the PAMPA_Papp_Avg result was “BQL”, the PAMPA_R1 result is reported as “BQL” and the PAMPA_R3 entry is reported as “BQL”.
In the case of “PRO DPRO DPHE *DLEU *DPHE DLEU ILE PRO *DLEU LEU [Design D10.15]”, in series [1], the PAMPA_Papp_Avg entry is given as “BQL”, the PAMPA_R1 entry was “BQL” and the PAMPA_R3 entry is on record as “BQL”.
